According to article PMC5452262 (2016):

How the values were obtained:
[1] = system: antibody-regulated DNA-nanoswitch variant #2 (DNA, hairpin) TCCGTTTTTTTTTTTTTTTTCGGA; test: fluorescence anisotropy titration; settings: 150 mM NaCl, 10 mM MgCl2; 50 mM sodium phosphate pH 7.0, 25 °C; 100 nM doxorubicin titrated with DNA
[2] = system: antibody-regulated DNA-nanoswitch variant #1 (DNA, hairpin) TAGTTTTTTTTTTTTTTTTCTA; test: fluorescence anisotropy titration; settings: 150 mM NaCl, 10 mM MgCl2; 50 mM sodium phosphate pH 7.0, 25 °C; 100 nM doxorubicin titrated with DNA
[3] = system: TBP-regulated DNA-nanoswitch variant #2 (DNA, hairpin) CTATATAAAGCCCTTTTATATATCTTGGGTAGGGC; test: fluorescence anisotropy titration; settings: 150 mM NaCl, 10 mM MgCl2; 50 mM sodium phosphate pH 7.0, 25 °C; 100 nM doxorubicin titrated with DNA
[4] = system: TBP-regulated control #1 (lacks GC-rich stem) (DNA, hairpin) TTATATAAATTTTTTATATATTTTTTTTATT; test: fluorescence anisotropy; settings: 150 mM NaCl, 10 mM MgCl2; 50 mM sodium phosphate pH 7.0, 25 °C; equimolar doxorubicin and DNA, 100 nM
[5] = system: TBP-regulated DNA-nanoswitch variant #3 (DNA, hairpin) CTATATAAACCGCCCTTTTATATATCTTGGGTAGGGCGG; test: fluorescence anisotropy titration; settings: 150 mM NaCl, 10 mM MgCl2; 50 mM sodium phosphate pH 7.0, 25 °C; 100 nM doxorubicin titrated with DNA
[6] = system: antibody-regulated DNA-nanoswitch variant #3 (DNA, hairpin) TCGCCGTTTTTTTTTTTTTTTTCGGCGA; test: fluorescence anisotropy titration; settings: 150 mM NaCl, 10 mM MgCl2; 50 mM sodium phosphate pH 7.0, 25 °C; 100 nM doxorubicin titrated with DNA
[7] = system: TBP-regulated DNA-nanoswitch variant #1 (DNA, hairpin) CTATATAAACCTTTTATATATCTTGGGTAGG; test: fluorescence anisotropy titration; settings: 150 mM NaCl, 10 mM MgCl2; 50 mM sodium phosphate pH 7.0, 25 °C; 100 nM doxorubicin titrated with DNA

- binding [1]: yes
- binding [2]: weak
- binding [3]: yes
- binding [4]: weak
- binding [5]: yes
- binding [6]: yes
- binding [7]: yes
Structure (SMILES): COc1cccc2c1C(=O)c1c(O)c3c(c(O)c1C2=O)C[C@@](O)(C(=O)CO)C[C@@H]3O[C@H]1C[C@H](N)[C@H](O)[C@H](C)O1
